Source: ChEMBL document CHEMBL1141944, “A synthesis of 3-deoxydihydrolycoricidine: refinement of a structurally minimum pancratistatin pharmacophore” (Bioorg Med Chem Lett, 2005)
Active and inactive are the calls of the source. The rule behind the calls is not given here.

Assays:
Assay type in all cases: functional, cell-based
MCF7 [1] = assay: Induction of apoptosis in human breast carcinoma MCF7 cell line
Jurkat [2] = assay: Induction of apoptosis in human Jurkat […] cell line
MCF7 [3] = assay: Antitumor activity in human breast carcinoma MCF7 cell line at 1 to 10 uM
Jurkat [4] = assay: Antitumor activity in human Jurkat […] cell line at 1 to 10 uM

SMILES | Activity (MCF7 [1]) | Activity (Jurkat [2]) | Activity (MCF7 [3]) | Activity (Jurkat [4])
O=C1N[C@H]2[C@H](O)[C@H](O)[C@@H](O)[C@H](O)[C@@H]2c2cc3c(c(O)c21)OCO3 | Active | Active | – | –
O=C1N[C@H]2[C@H](O)C[C@@H](O)C[C@@H]2c2cc3c(cc21)OCO3 | inactive | inactive | inactive | inactive
